Results from patent US9169241B2, “Quinolinyloxyphenylsulfonamides” (Max-Planck-Gesellschaft Zur Forderung der Wissenschaften …, priority 2009, dated 2015).

Key:
Type in all cases: cell-based
[1] = biological target: T1, wild type AXL (wtAXL) receptor tyrosine kinase (Homo sapiens, UniProt P30530); assay: NIH-3T3-AXL cellular kinase assay (pY-AXL-ELISA); settings: NIH-3T3-AXL (clone 22) cells, serum depleted, compounds 1 h; Table Ia
T1 construct: WtAXL cDNA was cloned into vector pLXSN(ESK) and transfected into Phoenix E packaging cells; expressed in transfected cells; host or cells: NIH3T3 N7 (mouse fibroblasts), retrovirally infected, clone 22
T1 sequence (P30530 26-894): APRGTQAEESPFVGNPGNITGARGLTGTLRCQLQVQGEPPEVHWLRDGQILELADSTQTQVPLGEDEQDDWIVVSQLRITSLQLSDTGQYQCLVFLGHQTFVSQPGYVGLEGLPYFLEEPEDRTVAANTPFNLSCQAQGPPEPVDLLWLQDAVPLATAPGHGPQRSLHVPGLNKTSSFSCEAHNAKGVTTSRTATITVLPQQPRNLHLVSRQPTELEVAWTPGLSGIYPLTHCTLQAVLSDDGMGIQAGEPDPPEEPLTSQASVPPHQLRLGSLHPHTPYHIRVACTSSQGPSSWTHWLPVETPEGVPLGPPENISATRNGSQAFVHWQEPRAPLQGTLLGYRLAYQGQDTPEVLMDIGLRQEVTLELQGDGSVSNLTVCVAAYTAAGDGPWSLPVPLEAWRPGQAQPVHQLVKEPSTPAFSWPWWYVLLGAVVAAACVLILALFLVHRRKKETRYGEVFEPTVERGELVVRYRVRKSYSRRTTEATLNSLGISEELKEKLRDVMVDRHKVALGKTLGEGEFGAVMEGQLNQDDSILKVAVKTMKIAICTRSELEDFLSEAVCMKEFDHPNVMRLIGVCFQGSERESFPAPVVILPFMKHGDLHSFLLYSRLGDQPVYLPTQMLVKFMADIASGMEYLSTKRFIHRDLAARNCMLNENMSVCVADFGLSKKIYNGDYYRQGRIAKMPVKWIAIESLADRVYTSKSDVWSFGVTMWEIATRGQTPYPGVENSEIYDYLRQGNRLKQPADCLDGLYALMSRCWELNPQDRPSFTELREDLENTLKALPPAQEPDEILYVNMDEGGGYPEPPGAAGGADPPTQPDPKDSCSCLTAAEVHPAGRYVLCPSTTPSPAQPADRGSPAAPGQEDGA
Method in brief: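 Phospho-AXL was quantified by ELISA in lysates (4G10-biotin, streptavidin-AP, AttoPhos, 430/560 nm read at 90 min). The cells were monoclonal NIH3T3 lines stably transduced with human wtAXL, exposed to serial compound dilutions for 1 h before lysis.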

[2] = tested on: C8161; assay: Apoptosis assay (Cellomics, nucleus condensation); settings: Homo sapiens, Table III, read-out: Apoptosis induction in C8161
Method in brief: (§1)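 Cells seeded at 5000 per well were stained live with Hoechst 33342, and nuclear condensation was quantified per nucleus by automated fluorescence imaging alongside cell counts. Compound was tested at 12.5, 6.25, 3.125, 1.56, 0.78 and 0.39 μM against a DMSO control, with reads at 24 h and 48 h.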

[3] = tested on: Hs578T; assay: Apoptosis assay (Cellomics, nucleus condensation); settings: Homo sapiens, Hs-578T, Table III, read-out: Apoptosis induction in Hs578T
Method in brief: as §1

[4] = tested on: SF126; assay: Apoptosis assay (Cellomics, nucleus condensation); settings: Homo sapiens, SF-126, Table III, read-out: Apoptosis induction in SF126
Method in brief: as §1

[5] = tested on: SF763; assay: Apoptosis assay (Cellomics, nucleus condensation); settings: Table III, read-out: Apoptosis induction in SF763
Method in brief: as §1

[6] = tested on: U118; assay: Apoptosis assay (Cellomics, nucleus condensation); settings: Table III, read-out: Apoptosis induction in U118
Method in brief: as §1

[7] = tested on: U138; assay: Apoptosis assay (Cellomics, nucleus condensation); settings: Table III, read-out: Apoptosis induction in U138
Method in brief: as §1

Row | Compound | IC50 [1] [µM] | IC50 [2] [µM] | IC50 [3] [µM] | IC50 [4] [µM] | IC50 [5] [µM] | IC50 [6] [µM] | IC50 [7] [µM]
1 | COc1cc2c(Oc3ccc(NS(=O)(=O)c4c(F)cccc4F)cc3F)ccnc2cc1OCCN1CCOCC1 [Example 82, 2,6-Difluoro-N-{3-fluoro-4-[6-methoxy-7-(2-morpholin-4-yl-ethoxy)-quinolin-4-yloxy]-phenyl}-benzenesulfonamide] | < 0.5 | ≤ 12.5 | ≤ 12.5 | ≤ 12.5 | ≤ 12.5 | ≤ 12.5 | ≤ 12.5
2 | COc1cc2c(Oc3ccc(NS(=O)(=O)c4ccccc4C(F)(F)F)cc3Cl)ccnc2cc1OCCCN1CCN(C)CC1 [Example 87, N-(3-Chloro-4-{6-methoxy-7-[3-(4-methyl-piperazin-1-yl)-propoxy]-quinolin-4-yloxy}-phenyl)-2-trifluoromethyl-benzenesulfonamide] | < 0.5 | ≤ 12.5 | ≤ 12.5 | ≤ 12.5 | ≤ 12.5 | ≤ 12.5 | 12.5 to 50
